Data from patent US7846959B2, “Raf modulators and methods of use” (Exelixis, Inc., priority 2004, dated 2010).
Read-outs that look alike come from different tables or passages of the source.

Key:
B-Raf = B-Raf (Homo sapiens, UniProt P15056); assay: Luciferase-coupled chemiluminescence kinase assay (ATP consumption), B-Raf; format: biochemical
Outline: (§1)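 Pre-incub. kinase […] + cpd, 30 min RT (20 mM Tris pH 7.5, 10 mM MgCl2, 0.03% TX-100, 1 mM DTT). Start w/ ATP, 3 h ambient. Luciferase-luciferin mix added and luminescence read. Total ATP use 25-60%. IC50 derived.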

c-Raf = c-Raf (Homo sapiens, UniProt P04049); assay: Luciferase-coupled chemiluminescence kinase assay (ATP consumption), c-Raf; format: biochemical
Outline: as §1

[1] = read-out: bRaf (inhibition indicated as IC50)
[2] = read-out: cRaf-1 (inhibition indicated as IC50)

Sequence of B-Raf (P15056 whole entry): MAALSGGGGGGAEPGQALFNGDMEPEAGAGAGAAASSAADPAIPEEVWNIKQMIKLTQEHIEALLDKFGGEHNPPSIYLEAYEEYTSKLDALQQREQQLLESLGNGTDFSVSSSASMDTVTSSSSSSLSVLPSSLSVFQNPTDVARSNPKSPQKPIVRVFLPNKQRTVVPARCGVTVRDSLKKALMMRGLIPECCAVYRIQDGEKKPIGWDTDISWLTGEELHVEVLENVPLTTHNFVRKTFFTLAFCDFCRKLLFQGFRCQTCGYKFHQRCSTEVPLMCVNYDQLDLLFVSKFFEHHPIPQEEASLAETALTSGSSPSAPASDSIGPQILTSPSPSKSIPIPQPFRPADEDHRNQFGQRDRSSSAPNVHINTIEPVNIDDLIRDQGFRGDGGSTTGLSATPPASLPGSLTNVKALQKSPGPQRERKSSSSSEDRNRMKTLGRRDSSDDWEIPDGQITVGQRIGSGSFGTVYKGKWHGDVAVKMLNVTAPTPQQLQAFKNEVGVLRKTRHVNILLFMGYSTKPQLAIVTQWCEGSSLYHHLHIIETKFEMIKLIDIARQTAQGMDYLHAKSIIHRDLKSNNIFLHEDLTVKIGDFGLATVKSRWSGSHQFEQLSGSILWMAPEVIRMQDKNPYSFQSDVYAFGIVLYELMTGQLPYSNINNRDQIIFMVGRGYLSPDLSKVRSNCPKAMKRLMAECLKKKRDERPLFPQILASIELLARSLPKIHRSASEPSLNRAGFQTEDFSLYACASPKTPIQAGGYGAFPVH
Sequence of c-Raf (P04049 whole entry): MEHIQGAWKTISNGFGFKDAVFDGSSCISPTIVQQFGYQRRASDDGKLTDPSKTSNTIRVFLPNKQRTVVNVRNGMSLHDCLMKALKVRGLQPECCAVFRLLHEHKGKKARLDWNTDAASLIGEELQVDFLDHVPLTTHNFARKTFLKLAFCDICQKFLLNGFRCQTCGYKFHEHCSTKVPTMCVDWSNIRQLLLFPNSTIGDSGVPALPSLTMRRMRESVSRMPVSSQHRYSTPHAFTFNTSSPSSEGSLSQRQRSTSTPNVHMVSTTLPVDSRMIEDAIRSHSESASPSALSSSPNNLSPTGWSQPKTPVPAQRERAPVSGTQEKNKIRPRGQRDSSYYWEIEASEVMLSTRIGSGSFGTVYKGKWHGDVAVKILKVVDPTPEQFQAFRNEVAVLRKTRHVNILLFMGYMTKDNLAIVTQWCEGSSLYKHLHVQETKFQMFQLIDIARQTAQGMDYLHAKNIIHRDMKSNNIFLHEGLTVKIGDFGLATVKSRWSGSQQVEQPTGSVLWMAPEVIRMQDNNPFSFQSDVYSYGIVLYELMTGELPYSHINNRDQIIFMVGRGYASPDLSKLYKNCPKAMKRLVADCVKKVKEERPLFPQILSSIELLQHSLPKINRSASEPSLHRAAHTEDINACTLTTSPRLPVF

IC50 (B-Raf; read-out: bRaf IC50) [µM]	IC50 (c-Raf; read-out: cRaf-1 IC50) [µM]	IC50 (B-Raf; [1]) [µM]	IC50 (c-Raf; [2]) [µM]	Compound
< 0.1	< 0.1			COC(=O)Nc1nc2cc(C3(O)c4ccccc4C(=O)N3c3cc(Cl)ccc3F)ccc2[nH]1 (stereo not shown) [Entry 197, methyl {5-[2-(5-chloro-2-fluorophenyl)-1-hydroxy-3-oxo-2,3-dihydro-1H-isoindol-1-yl]-1H-benzimidazol-2-yl}carbamate]
< 0.1	< 0.1			O=C(Nc1nc2cc(C3(O)c4ccccc4C(=O)N3Cc3ccccc3)ccc2[nH]1)OCC1CCOC1 (stereo not shown) [Entry 212, tetrahydrofuran-3-ylmethyl {5-[1-hydroxy-3-oxo-2-(phenylmethyl)-2,3-dihydro-1H-isoindol-1-yl]-1H-benzimidazol-2-yl}carbamate]
1 to 10	1 to 10			COC(=O)Nc1nc2cc(C3(O)c4ccccc4C(=O)N3C(C)c3cc(Cl)ccc3C)ccc2[nH]1 (stereo not shown) [Entry 198, methyl (5-{2-[1-(5-chloro-2-methylphenyl)ethyl]-1-hydroxy-3-oxo-2,3-dihydro-1H-isoindol-1-yl}-1H-benzimidazol-2-yl)carbamate]
< 0.1	< 0.1			CN1CCN(CCCOC(=O)Nc2nc3ccc(C4(O)c5ccccc5C(=O)N4Cc4ccccc4)cc3[nH]2)CC1 (stereo not shown) [Entry 160, 3-(4-methylpiperazin-1-yl)propyl {6-[1-hydroxy-3-oxo-2-(phenylmethyl)-2,3-dihydro-1H-isoindol-1-yl]-1H-benzimidazol-2-yl}carbamate]
< 0.1	< 0.1			COC(=O)Nc1nc2cc(C3(O)c4ccccc4C(=O)N3c3cccc(C(F)(F)F)c3)ccc2[nH]1 (stereo not shown) [Entry 147, methyl (5-{1-hydroxy-3-oxo-2-[3-(trifluoromethyl)phenyl]-2,3-dihydro-1H-isoindol-1-yl}-1H-benzimidazol-2-yl)carbamate]
		< 0.1	< 0.1	CN1CCC[C@H]1COC(=O)Nc1nc2ccc(C3(O)c4ccccc4C(=O)N3c3cccc(Cl)c3F)cc2[nH]1 (stereo partly drawn) [Entry 303, [(2S)-1-methylpyrrolidin-2-yl]methyl {6-[2-(3-chloro-2-fluorophenyl)-1-hydroxy-3-oxo-2,3-dihydro-1H-isoindol-1-yl]-1H-benzimidazol-2-yl}carbamate]
< 0.1	< 0.1			COC(=O)Nc1nc2cc(C3(O)c4ccccc4C(=O)N3c3ccccc3Cl)ccc2[nH]1 (stereo not shown) [Entry 143, methyl {5-[2-(2-chlorophenyl)-1-hydroxy-3-oxo-2,3-dihydro-1H-isoindol-1-yl]-1H-benzimidazol-2-yl}carbamate]
< 0.1	< 0.1			O=C(NCc1ccccc1)Nc1nc2cc(C3(O)c4ccccc4C(=O)N3Cc3ccccc3)ccc2[nH]1 (stereo not shown) [Entry 169, N-{5-[1-hydroxy-3-oxo-2-(phenylmethyl)-2,3-dihydro-1H-isoindol-1-yl]-1H-benzimidazol-2-yl}-N′-(phenylmethyl)urea]
		1 to 10	1 to 10	O=C1c2ccccc2C(O)(c2ccc3[nH]c(Nc4ccccc4)nc3c2)N1c1cccc(Cl)c1F (stereo not shown) [Entry 348, 2-(3-chloro-2-fluorophenyl)-3-hydroxy-3-[2-(phenylamino)-1H-benzimidazol-5-yl]-2,3-dihydro-1H-isoindol-1-one]
0.1 to 1	0.1 to 1			Nc1ccccc1N1C(=O)c2ccccc2C1(O)c1ccc2c(c1)NC(=O)CO2 (stereo not shown) [Entry 47, 6-[2-(2-aminophenyl)-1-hydroxy-3-oxo-2,3-dihydro-1H-isoindol-1-yl]-2H-1,4-benzoxazin-3(4H)-one]
< 0.1	< 0.1			COC(=O)Nc1nc2cc(C3(O)c4ccccc4C(=O)N3Cc3cccc(C)c3)ccc2[nH]1 (stereo not shown) [Entry 131, methyl (5-{1-hydroxy-2-[(3-methylphenyl)methyl]-3-oxo-2,3-dihydro-1H-isoindol-1-yl}-1H-benzimidazol-2-yl)carbamate]
0.1 to 1	0.1 to 1			Nc1cccc(N2C(=O)c3ccccc3C2(O)c2ccc3c(c2)NC(=O)CO3)c1 (stereo not shown) [Entry 67, 6-[2-(3-aminophenyl)-1-hydroxy-3-oxo-2,3-dihydro-1H-isoindol-1-yl]-2H-1,4-benzoxazin-3(4H)-one]
		< 0.1	< 0.1	COc1cccc(N2C(=O)c3ccccc3C2(O)c2ccc3nc(Nc4ncccn4)[nH]c3c2)c1 (stereo not shown) [Entry 373, 3-hydroxy-2-[3-(methyloxy)phenyl]-3-[2-(pyrimidin-2-ylamino)-1H-benzimidazol-6-yl]-2,3-dihydro-1H-isoindol-1-one]
1 to 10	0.1 to 1			O=C1COc2ccc(C3(O)c4ccccc4C(=O)N3c3cccc(Oc4ccccc4)c3)cc2N1 (stereo not shown) [Entry 79, 6-{1-hydroxy-3-oxo-2-[3-(phenyloxy)phenyl]-2,3-dihydro-1H-isoindol-1-yl}-2H-1,4-benzoxazin-3(4H)-one]
≥ 10	≥ 10			COC(=O)Nc1nc2cc(C3(O)c4ccccc4C(=O)N3C3Cc4ccccc4C3)ccc2[nH]1 (stereo not shown) [Entry 111, methyl {5-[2-(2,3-dihydro-1H-inden-2-yl)-1-hydroxy-3-oxo-2,3-dihydro-1H-isoindol-1-yl]-1H-benzimidazol-2-yl}carbamate]
< 0.1	< 0.1			COC(=O)Nc1nc2cc(C3(O)c4ccccc4C(=O)N3c3c(F)cccc3F)ccc2[nH]1 (stereo not shown) [Entry 193, methyl {5-[2-(2,6-difluorophenyl)-1-hydroxy-3-oxo-2,3-dihydro-1H-isoindol-1-yl]-1H-benzimidazol-2-yl}carbamate]
1 to 10	1 to 10			COC(=O)Nc1nc2cc(C3(O)c4ccccc4C(=O)N3[C@H](C(=O)OC)C3CCCCC3)ccc2[nH]1 (stereo partly drawn) [Entry 192, methyl (2S)-cyclohexyl[1-hydroxy-1-(2-{[(methyloxy)carbonyl]amino}-1H-benzimidazol-5-yl)-3-oxo-1,3-dihydro-2H-isoindol-2-yl]ethanoate]
		< 0.1	< 0.1	C#Cc1ccc(F)c(N2C(=O)c3ccccc3C2(O)c2ccc3nc(NC(=O)OC)[nH]c3c2)c1 (stereo not shown) [Entry 363, methyl {6-[2-(5-ethynyl-2-fluorophenyl)-1-hydroxy-3-oxo-2,3-dihydro-1H-isoindol-1-yl]-1H-benzimidazol-2-yl}carbamate]
		< 0.1	< 0.1	C#Cc1c(F)ccc(N2C(=O)c3ccccc3C2(O)c2ccc3[nH]c(NC(=O)OC)nc3c2)c1F (stereo not shown) [Entry 353, methyl {5-[2-(3-ethynyl-2,4-difluorophenyl)-1-hydroxy-3-oxo-2,3-dihydro-1H-isoindol-1-yl]-1H-benzimidazol-2-yl}carbamate]
		< 0.1	< 0.1	C#Cc1cccc(N2C(=O)c3c(F)ccc(F)c3C2(O)c2ccc3[nH]c(NC(=O)OC)nc3c2)c1F (stereo not shown) [Entry 355, methyl {5-[2-(3-ethynyl-2-fluorophenyl)-4,7-difluoro-1-hydroxy-3-oxo-2,3-dihydro-1H-isoindol-1-yl]-1H-benzimidazol-2-yl}carbamate]
1 to 10	1 to 10			COC(=O)Nc1nc2cc(C3(O)c4ccccc4C(=O)N3c3cccc(-c4ccccc4)c3)ccc2[nH]1 (stereo not shown) [Entry 222, methyl [5-(2-biphenyl-3-yl-1-hydroxy-3-oxo-2,3-dihydro-1H-isoindol-1-yl)-1H-benzimidazol-2-yl]carbamate]
		< 0.1	< 0.1	COC(=O)Nc1nc2cc(C3(O)c4ccccc4C(=O)N3c3cc(Br)ccc3C)ccc2[nH]1 (stereo not shown) [Entry 305, methyl {5-[2-(5-bromo-2-methylphenyl)-1-hydroxy-3-oxo-2,3-dihydro-1H-isoindol-1-yl]-1H-benzimidazol-2-yl}carbamate]
< 0.1	< 0.1			COC(=O)Nc1nc2cc(C3(O)c4ccccc4C(=O)N3c3cccc(C(C)=O)c3)ccc2[nH]1 (stereo not shown) [Entry 237, methyl {5-[2-(3-acetylphenyl)-1-hydroxy-3-oxo-2,3-dihydro-1H-isoindol-1-yl]-1H-benzimidazol-2-yl}carbamate]
		< 0.1	0.1 to 1	COC(=O)Nc1nc2ccc(C3(O)c4ccccc4C(=O)N3c3cccc(OC)c3F)cc2[nH]1 (stereo not shown) [Entry 367, methyl (6-{2-[2-fluoro-3-(methyloxy)phenyl]-1-hydroxy-3-oxo-2,3-dihydro-1H-isoindol-1-yl}-1H-benzimidazol-2-yl)carbamate]
		< 0.1	< 0.1	COC(=O)Nc1nc2ccc(C(=O)c3ccccc3C(=O)Nc3cccc(OC)c3)cc2[nH]1 [Entry 397, methyl (6-{[2-({[3-(methyloxy)phenyl]amino}carbonyl)phenyl]carbonyl}-1H-benzimidazol-2-yl)carbamate]
1 to 10	1 to 10			COC(=O)Nc1nc2cc(C3(O)c4ccccc4C(=O)N3C(C)c3ccccc3F)ccc2[nH]1 (stereo not shown) [Entry 172, methyl (5-{2-[1-(2-fluorophenyl)ethyl]-1-hydroxy-3-oxo-2,3-dihydro-1H-isoindol-1-yl}-1H-benzimidazol-2-yl)carbamate]
		1 to 10	1 to 10	CCOC(=O)Nc1nc2cc(C(=O)c3ccccc3C(=O)OCc3ccccc3)ccc2o1 [Entry 350, phenylmethyl 2-[(2-{[(ethyloxy)carbonyl]amino}-1,3-benzoxazol-5-yl)carbonyl]benzoate]
		< 0.1	< 0.1	O=C1c2ccccc2C(O)(c2ccc3[nH]c(Nc4ncc(Cl)cn4)nc3c2)N1c1cccc(Cl)c1F (stereo not shown) [Entry 384, 2-(3-chloro-2-fluorophenyl)-3-{2-[(5-chloropyrimidin-2-yl)amino]-1H-benzimidazol-5-yl}-3-hydroxy-2,3-dihydro-1H-isoindol-1-one]
		0.1 to 1	< 0.1	O=C(Nc1nc2ccc(C3c4ccccc4C(=O)N3c3cccc(Br)c3)cc2[nH]1)OCCN1CCCCC1 (stereo not shown) [Entry 295, 2-piperidin-1-ylethyl {6-[2-(3-bromophenyl)-3-oxo-2,3-dihydro-1H-isoindol-1-yl]-1H-benzimidazol-2-yl}carbamate]
